Values of other authors as cited in patent publication US20260265270A1 (priority 2023, published 2026).

Legend:
[1] = test system: IL-23 secreted by monocytes; conditions: after administration of the inhibitor
[2] = test system: IL-2 secreted by T cells; conditions: after administration of the inhibitor

For `COc1ccc(C[C@H](NC(=O)[C@H](C)NC(=O)CN2CCOCC2)C(=O)N[C@@H](Cc2ccccc2)C(=O)C2(C)CO2)cc1` (stereo in doubt) [ONX0914], the “IL-23 secreted by monocytes” value [1] is listed as “decrease significantly” and the “IL-2 secreted by T cells” value [2] is listed as “decrease significantly”.
